Laboratory results taken from US8415469B2, “Compounds and methods for kinase modulation, and indications therefor” (Plexxikon Inc., priority 2005, dated 2013).

How the values were obtained:
Assay type in all cases: biochemical
B-Raf = target: T1, B-Raf (Homo sapiens, UniProt P15056); test: AlphaScreen kinase assay, B-Raf; conditions: read-out: IC50, activity toward kinase B-Raf
T1 construct: purchased Upstate Biotechnology

FGFR1 = target: T2, FGFR1 (Homo sapiens, UniProt P11362, C488A/C584S); test: AlphaScreen kinase assay, FGFR1; conditions: read-out: IC50, activity toward kinase FGFR
T2 construct: P1351.pET N6 BI-PTP FGFR A458-E765-X C488A, C584S; made in house; host or cells: E. coli (PTP1B co-expressed)

Flt1 = target: T3, Flt1 (Homo sapiens, UniProt P17948); test: AlphaScreen kinase assay, Flt1; conditions: read-out: IC50, activity toward kinase Flt1
T3 construct: P1826.pETN6 BI-PTP FLT1 M799-D1165-X WT; His6 (N); made in house; host or cells: E. coli (PTP1B co-expressed)
T3 sequence (P17948 with tags, fused parts or gaps): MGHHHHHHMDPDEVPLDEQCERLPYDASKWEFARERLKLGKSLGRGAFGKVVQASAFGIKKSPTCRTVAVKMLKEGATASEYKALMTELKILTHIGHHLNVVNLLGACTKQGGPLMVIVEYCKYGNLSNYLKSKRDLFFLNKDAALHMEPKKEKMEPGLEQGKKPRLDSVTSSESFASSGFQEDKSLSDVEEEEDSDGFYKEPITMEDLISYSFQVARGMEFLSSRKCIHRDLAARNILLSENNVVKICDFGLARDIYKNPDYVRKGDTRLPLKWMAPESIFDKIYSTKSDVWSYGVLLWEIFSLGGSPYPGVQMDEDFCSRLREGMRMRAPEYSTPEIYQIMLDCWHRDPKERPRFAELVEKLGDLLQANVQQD

Fms = target: T4, Fms (Homo sapiens, UniProt P07333); test: AlphaScreen kinase assay, Fms; conditions: read-out: IC50, activity toward kinase Fms
T4 construct: purchased Upstate Biotechnology
Description: AlphaScreen assay was used to screen additional kinases. The assay is similarly dependent on the phosphorylation of a peptide substrate. In this assay, an antibody that recognizes phosphorylated substrate is bound to an acceptor bead. The peptide substrate is attached to biotin, which binds to a donor head that contains streptavidin. Thus phosphorylated substrate is bound by antibody and streptavidin, bringing the donor and acceptor heads into close proximity when kinase is not inhibited. The donor produces singlet oxygen which results in emission from the acceptor when they are in close proximity. Conversely, when kinase is inhibited, the donor and acceptor beads are not associated and the emission from the acceptor is reduced.
AlphaScreen assays were done using compounds dissolved in DMSO to a concentration of 20 mM. The compounds were diluted accordingly to the desired final concentrations in each sample well, using 1:3 serial dilution for a total of 8 concentration points. Plates were prepared such that each kinase reaction is 20 μl in 1× kinase buffer, 5% DMSO and 10 μM ATP. After incubation of the kinase reaction for 1 hour at room temperature, 5 μl of donor beads in stop buffer (50 mM EDTA in 1× kinase buffer) was added, the sample was mixed and incubated for 20 minutes at room temperature before adding 5 μl of acceptor beads in stop buffer. The samples were incubated for 60 minutes at room temperature and the signal per well was read on AlphaQuest reader.

B-Raf V600E = target: T5, B-Raf V600E (Homo sapiens, UniProt P15056, V600E); test: AlphaScreen kinase assay, B-Raf V600E; conditions: read-out: IC50, activity toward kinase B-Raf V600E
T5 construct: P4254. pFastBacBD-CDC37 BRAF D437-K722-X, V600E; His6 with pFastBac HT leader (TEV site) (N); made in house; host or cells: Sf9 (baculovirus; chaperone CDC37 co-expressed)

Kit = target: T6, Kit (Homo sapiens, UniProt P10721); test: AlphaScreen kinase assay, Kit; conditions: read-out: IC50, activity toward kinase Kit
T6 construct: P1332.N6 BI PTP KIT M552-K948-X COD; His6 (N); made in house; host or cells: E. coli (PTP1B co-expressed)

Measured: IC50

T1 sequence (P15056 whole entry): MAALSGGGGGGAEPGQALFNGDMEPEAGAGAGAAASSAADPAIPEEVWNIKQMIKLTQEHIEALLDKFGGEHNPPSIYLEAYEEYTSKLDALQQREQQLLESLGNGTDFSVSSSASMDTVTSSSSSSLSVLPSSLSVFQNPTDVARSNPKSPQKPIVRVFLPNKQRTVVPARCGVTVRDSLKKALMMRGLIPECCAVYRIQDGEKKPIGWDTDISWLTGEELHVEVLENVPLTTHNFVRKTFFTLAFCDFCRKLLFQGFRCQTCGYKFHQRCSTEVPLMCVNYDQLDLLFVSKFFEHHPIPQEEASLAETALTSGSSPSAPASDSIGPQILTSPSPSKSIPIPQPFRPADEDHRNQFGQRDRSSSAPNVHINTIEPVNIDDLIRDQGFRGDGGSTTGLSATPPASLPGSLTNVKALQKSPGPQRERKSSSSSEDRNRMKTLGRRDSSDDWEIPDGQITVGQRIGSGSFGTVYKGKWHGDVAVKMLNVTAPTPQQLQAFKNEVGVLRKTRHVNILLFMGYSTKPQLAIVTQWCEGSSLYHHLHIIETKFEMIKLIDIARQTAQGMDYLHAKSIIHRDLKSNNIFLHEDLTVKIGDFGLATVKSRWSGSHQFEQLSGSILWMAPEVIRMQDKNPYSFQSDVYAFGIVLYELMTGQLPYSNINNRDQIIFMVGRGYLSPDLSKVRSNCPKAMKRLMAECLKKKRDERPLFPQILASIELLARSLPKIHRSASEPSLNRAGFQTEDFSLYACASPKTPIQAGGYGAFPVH
T2 sequence (P11362 458-765 C488A/C584S): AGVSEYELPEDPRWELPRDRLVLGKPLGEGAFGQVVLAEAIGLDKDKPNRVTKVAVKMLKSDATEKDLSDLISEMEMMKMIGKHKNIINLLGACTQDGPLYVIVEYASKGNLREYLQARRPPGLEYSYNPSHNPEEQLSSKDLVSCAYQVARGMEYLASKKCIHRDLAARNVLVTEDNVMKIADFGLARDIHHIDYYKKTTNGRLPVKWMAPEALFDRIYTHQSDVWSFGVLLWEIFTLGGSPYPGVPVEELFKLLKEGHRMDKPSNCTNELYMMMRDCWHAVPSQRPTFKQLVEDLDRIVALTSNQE
T6 sequence (P10721 with tags, fused parts or gaps): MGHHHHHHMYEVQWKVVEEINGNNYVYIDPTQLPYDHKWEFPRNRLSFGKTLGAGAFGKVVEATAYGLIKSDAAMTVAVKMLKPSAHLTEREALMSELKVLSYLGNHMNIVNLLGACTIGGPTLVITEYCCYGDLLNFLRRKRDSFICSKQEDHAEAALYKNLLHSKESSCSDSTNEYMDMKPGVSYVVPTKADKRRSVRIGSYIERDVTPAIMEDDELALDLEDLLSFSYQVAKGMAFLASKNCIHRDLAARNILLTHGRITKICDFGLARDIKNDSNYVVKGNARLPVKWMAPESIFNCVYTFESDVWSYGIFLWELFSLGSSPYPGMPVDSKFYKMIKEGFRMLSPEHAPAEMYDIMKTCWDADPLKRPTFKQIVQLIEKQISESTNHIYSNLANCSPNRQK
T4 sequence (P07333 20-972): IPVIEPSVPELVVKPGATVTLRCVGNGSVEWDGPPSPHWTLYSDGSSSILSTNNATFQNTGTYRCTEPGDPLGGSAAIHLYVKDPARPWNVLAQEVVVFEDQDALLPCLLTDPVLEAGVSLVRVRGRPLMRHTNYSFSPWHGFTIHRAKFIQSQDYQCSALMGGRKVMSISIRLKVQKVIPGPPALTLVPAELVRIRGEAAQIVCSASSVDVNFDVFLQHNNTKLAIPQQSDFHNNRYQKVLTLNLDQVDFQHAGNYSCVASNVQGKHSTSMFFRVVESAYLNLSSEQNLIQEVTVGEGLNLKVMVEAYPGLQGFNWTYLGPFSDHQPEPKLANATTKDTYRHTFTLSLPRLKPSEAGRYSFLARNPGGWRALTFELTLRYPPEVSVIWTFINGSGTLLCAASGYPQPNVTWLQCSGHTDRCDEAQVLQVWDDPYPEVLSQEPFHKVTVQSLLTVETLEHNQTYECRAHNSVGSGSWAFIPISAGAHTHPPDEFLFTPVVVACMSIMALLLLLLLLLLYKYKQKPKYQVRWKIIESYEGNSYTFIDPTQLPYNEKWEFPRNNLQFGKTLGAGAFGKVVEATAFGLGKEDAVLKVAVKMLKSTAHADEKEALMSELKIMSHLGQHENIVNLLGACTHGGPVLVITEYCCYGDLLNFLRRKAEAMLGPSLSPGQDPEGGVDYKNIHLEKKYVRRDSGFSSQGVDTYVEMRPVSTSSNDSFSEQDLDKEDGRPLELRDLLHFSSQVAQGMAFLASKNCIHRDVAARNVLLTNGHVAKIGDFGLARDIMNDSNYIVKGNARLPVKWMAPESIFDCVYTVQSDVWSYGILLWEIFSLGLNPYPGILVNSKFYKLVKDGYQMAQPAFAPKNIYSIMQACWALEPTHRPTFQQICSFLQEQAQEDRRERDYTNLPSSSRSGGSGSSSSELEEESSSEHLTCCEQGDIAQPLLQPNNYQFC
T5 sequence (P15056 with tags, fused parts or gaps V600E): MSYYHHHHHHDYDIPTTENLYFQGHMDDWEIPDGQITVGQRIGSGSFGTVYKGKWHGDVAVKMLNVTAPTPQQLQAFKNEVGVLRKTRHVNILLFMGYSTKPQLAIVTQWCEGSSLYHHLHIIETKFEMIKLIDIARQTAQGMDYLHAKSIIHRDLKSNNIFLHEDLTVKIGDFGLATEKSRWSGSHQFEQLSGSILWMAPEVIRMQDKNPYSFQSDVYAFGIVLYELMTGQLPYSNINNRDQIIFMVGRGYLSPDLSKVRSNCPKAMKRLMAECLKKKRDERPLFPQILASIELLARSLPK

COc1ccnc2[nH]cc(Cc3ccc(NCc4ccc(C(F)(F)F)cc4)nc3)c12 [Compound P-1110]
≤ 10 µM: B-Raf | FGFR1 | Flt1 | Fms

CC(C)(C)OC(=O)N(Cc1ccc(Cl)cc1)c1ccc(C(=O)c2c[nH]c3ncccc23)cn1 [Compound P-1194]
not listed: B-Raf
≤ 10 µM: all other assays above

CC(=O)Nc1cccc(-c2cnc3[nH]cc(C(=O)c4cc(Cl)cc(Cl)c4)c3c2)c1 [Compound P-1423, N-{3-[3-(3,5-Dichloro-benzoyl)-1H-pyrrolo[2,3-b]pyridin-5-yl]-phenyl}-acetamide]
not listed: B-Raf
≤ 10 µM: all other assays above

COc1cc(OC)cc(C(OC)c2c[nH]c3ncc(Br)cc23)c1 (stereo not shown) [Compound P-1461]
≤ 10 µM: FGFR1 | Flt1 | Fms | Kit

COc1cc(OC)cc(C(=O)c2c[nH]c3ncc(Br)cc23)c1 [Compound P-1463, (5-Bromo-1H-pyrrolo[2,3-b]pyridin-3-yl)-(3,5-dimethoxy-phenyl)-methanone]
≤ 10 µM: FGFR1 | Flt1 | Fms | Kit

COc1cc(Cc2c[nH]c3ncc(Br)cc23)cc(OC)c1 [Compound P-1464, 5-Bromo-3-(3,5-dimethoxy-benzyl)-1H-pyrrolo[2,3-b]pyridine]
≤ 10 µM: FGFR1 | Flt1 | Fms | Kit

CCCS(=O)(=O)Nc1ccc(F)c(C(=O)c2c[nH]c3ncc(C(=O)OC)cc23)c1F [Compound P-1552, 3-[2,6-difluoro-3-(propane-1-sulfonylamino)-benzoyl]-1H-pyrrolo[2,3-b]pyridine-5-carboxylic acid methyl ester]
not listed: FGFR1
≤ 10 µM: all other assays above

CCCS(=O)(=O)Nc1ccc(F)c(C(=O)c2c[nH]c3ncc(C(=O)O)cc23)c1F [Compound P-1559, 3-[2,6-difluoro-3-(propane-1-sulfonylamino)-benzoyl]-1H-pyrrolo[2,3-b]pyridine-5-carboxylic acid]
not listed: FGFR1
≤ 10 µM: all other assays above

CS(=O)(=O)Nc1cccc(-c2cnc3[nH]cc(C(=O)c4ccc5c(c4)OC(F)(F)O5)c3c2)c1 [Compound P-1564, N-{3-[3-(2,2-Difluoro-benzo[1,3]dioxole-5-carbonyl)-1H-pyrrolo[2,3-b]pyridin-5-yl]-phenyl}-methanesulfonamide]
not listed: B-Raf
≤ 10 µM: all other assays above

O=C(NCCN1CCOCC1)Nc1ccc(F)c(C(=O)c2c[nH]c3ncc(Cl)cc23)c1F [Compound P-1580, 1-[3-(5-Chloro-1H-pyrrolo[2,3-b]pyridine-3-carbonyl)-2,4-difluoro-phenyl]-3-(2-morpholin-4-yl-ethyl)-urea]
≤ 10 µM: B-Raf | Flt1 | Fms | Kit

COc1cnc2[nH]cc(C(=O)c3c(F)ccc(NS(=O)(=O)c4ccc(F)cc4)c3F)c2c1 [Compound P-1582, N-[2,4-Difluoro-3-(5-methoxy-1H-pyrrolo[2,3-b]pyridine-3-carbonyl)-phenyl]-4-fluoro-benzenesulfonamide]
not listed: Fms
≤ 10 µM: all other assays above

CCCCNC(=O)Nc1ccc(F)c(C(=O)c2c[nH]c3ncc(Cl)cc23)c1F [Compound P-1586, 1-Butyl-3-[3-(5-chloro-1H-pyrrolo[2,3-b]pyridine-3-carbonyl)-2,4-difluoro-phenyl]-urea]
≤ 10 µM: B-Raf | B-Raf V600E | Flt1 | Fms

COc1cnc2[nH]cc(Cc3c(F)ccc(NS(=O)(=O)c4cccc(C(F)(F)F)c4)c3F)c2c1 [Compound P-1590, N-[2,4-Difluoro-3-(5-methoxy-1H-pyrrolo[2,3-b]pyridin-3-ylmethyl)-phenyl]-3-trifluoromethyl-benzenesulfonamide]
≤ 10 µM: B-Raf | B-Raf V600E | Flt1 | Kit

Nc1cccc(C(=O)c2c[nH]c3ncc(-c4cccc(OC(F)(F)F)c4)cc23)c1 [Compound P-1593]
≤ 10 µM: B-Raf | FGFR1 | Flt1 | Kit

COc1cnc2[nH]cc(C(=O)c3c(F)ccc(NS(=O)(=O)c4cccc(C(F)(F)F)c4)c3F)c2c1 [Compound P-1598, N-[2,4-Difluoro-3-(5-methoxy-1H-pyrrolo[2,3-b]pyridine-3-carbonyl)-phenyl]-3-trifluoromethyl-benzenesulfonamide]
not listed: FGFR1
≤ 10 µM: all other assays above

O=C(c1c(F)ccc(NS(=O)(=O)c2cccc(C(F)(F)F)c2)c1F)c1c[nH]c2ncc(Cl)cc12 [Compound P-1599, N-[3-(5-Chloro-1H-pyrrolo[2,3-b]pyridine-3-carbonyl)-2,4-difluoro-phenyl]-3-trifluoromethyl-benzenesulfonamide]
not listed: FGFR1
≤ 10 µM: all other assays above

O=S(=O)(Nc1ccc(F)c(Cc2c[nH]c3ncc(Cl)cc23)c1F)c1cccc(C(F)(F)F)c1 [Compound P-1600, N-[2,4-Difluoro-3-(5-chloro-1H-pyrrolo[2,3-b]pyridin-3-ylmethyl)-phenyl]-3-trifluoromethyl-benzenesulfonamide]
≤ 10 µM: B-Raf | B-Raf V600E | Flt1

CS(=O)(=O)Nc1ccc(F)c(Cc2c[nH]c3ncc(-c4cccnc4)cc23)c1F [Compound P-1605, N-[2,4-Difluoro-3-(5-pyridin-3-yl-1H-pyrrolo[2,3-b]pyridin-3-ylmethyl)-phenyl]-methanesulfonamide]
not listed: Fms
≤ 10 µM: all other assays above

CCCS(=O)(=O)Nc1cccc(C(=O)c2c[nH]c3ncc(Br)cc23)c1C [Compound P-1608]
not listed: Kit
≤ 10 µM: all other assays above

Cc1c(NS(=O)(=O)N(C)C)cccc1C(=O)c1c[nH]c2ncc(Br)cc12 [Compound P-1609]
not listed: Kit
≤ 10 µM: all other assays above

CCCCN(C)C(=O)Nc1ccc(F)c(C(=O)c2c[nH]c3ncc(Cl)cc23)c1F [Compound P-1612, 1-Butyl-3-[3-(5-chloro-1H-pyrrolo[2,3-b]pyridine-3-carbonyl)-2,4-difluoro-phenyl]-1-methyl-urea]
≤ 10 µM: B-Raf | B-Raf V600E | Flt1 | Fms
